Test results as given in article PMC6949113, “Preclinical evaluation of AT-527, a novel guanosine nucleotide prodrug with potent, pan-genotypic activity against hepatitis C virus” (PLoS ONE, 2020).
Values joined by “and” are separate entries in the source; they are usually repeats but may differ in a detail not shown here. Identical values can stand only once. Counter-ions that a name gives are not always drawn. Like-named read-outs stand apart in the source and are kept apart here.

Columns and labels:
RSV = assay: Anti-RSV assay (XTT); conditions: RSV in HEp2 cells
HBV = assay: Anti-HBV evaluation (qPCR of HBV DNA); assay type: cell-based; conditions: Hepatitis B virus; HBV in AD38 cells
Method: (§1) Anti-HBV evaluation. […] The test compound was serially diluted in the RPMI/FBS medium and added to the wells in triplicate (with six wells receiving medium alone as a virus only control). The plate was incubated for 6 days, with a change in medium (+/- compound) on Day 3. Supernatant (100 µL) was collected from each well for analysis of viral DNA by qPCR as described below and cytotoxicity was evaluated by XTT staining of the cell culture monolayer on the sixth day as described above.
Quantitative PCR detection of HBV DNA. Cell culture supernatant (10 µL) was diluted in qPCR dilution buffer (40 µg/mL sheared salmon sperm DNA) and boiled for 15 min. Quantitative real time PCR was performed in […] using an Applied Biosystems 7900HT Sequence Detection System and the supporting SDS 2.4 software. Samples (5 µL boiled DNA) and DNA standards were subjected to real time qPCR using Platinum Quantitative PCR SuperMix-UDG (Invitrogen) and specific DNA oligonucleotide primers (IDT, Coralville, […]) HBV-AD38-qF1 (5’-[…] -3’), HBV-AD38-qR1 (5’-AGT CCA AGA GTY CTC TTA TRY AAG ACC TT-3’), and HBV-AD38-qP1 (5’-FAM-CCG TGT GCA/ZEN/[…] -3’BHQ1) at a final concentration of 0.2 µM for each primer in a total reaction volume of 15 µL. […]

AD38 cells = assay: XTT cytotoxicity, AD38 cells; assay type: cell-based; conditions: AD38, HBV assay
Method: (§2) Determination of antiviral activity and cytotoxicity.
as §1

[1] = molecular target: human mitochondrial RNA polymerase (POLRMT) (Homo sapiens, UniProt O00411); conditions: nucleotide controls; cited from earlier work
Chain of human mitochondrial RNA polymerase (POLRMT) (O00411 42-1230): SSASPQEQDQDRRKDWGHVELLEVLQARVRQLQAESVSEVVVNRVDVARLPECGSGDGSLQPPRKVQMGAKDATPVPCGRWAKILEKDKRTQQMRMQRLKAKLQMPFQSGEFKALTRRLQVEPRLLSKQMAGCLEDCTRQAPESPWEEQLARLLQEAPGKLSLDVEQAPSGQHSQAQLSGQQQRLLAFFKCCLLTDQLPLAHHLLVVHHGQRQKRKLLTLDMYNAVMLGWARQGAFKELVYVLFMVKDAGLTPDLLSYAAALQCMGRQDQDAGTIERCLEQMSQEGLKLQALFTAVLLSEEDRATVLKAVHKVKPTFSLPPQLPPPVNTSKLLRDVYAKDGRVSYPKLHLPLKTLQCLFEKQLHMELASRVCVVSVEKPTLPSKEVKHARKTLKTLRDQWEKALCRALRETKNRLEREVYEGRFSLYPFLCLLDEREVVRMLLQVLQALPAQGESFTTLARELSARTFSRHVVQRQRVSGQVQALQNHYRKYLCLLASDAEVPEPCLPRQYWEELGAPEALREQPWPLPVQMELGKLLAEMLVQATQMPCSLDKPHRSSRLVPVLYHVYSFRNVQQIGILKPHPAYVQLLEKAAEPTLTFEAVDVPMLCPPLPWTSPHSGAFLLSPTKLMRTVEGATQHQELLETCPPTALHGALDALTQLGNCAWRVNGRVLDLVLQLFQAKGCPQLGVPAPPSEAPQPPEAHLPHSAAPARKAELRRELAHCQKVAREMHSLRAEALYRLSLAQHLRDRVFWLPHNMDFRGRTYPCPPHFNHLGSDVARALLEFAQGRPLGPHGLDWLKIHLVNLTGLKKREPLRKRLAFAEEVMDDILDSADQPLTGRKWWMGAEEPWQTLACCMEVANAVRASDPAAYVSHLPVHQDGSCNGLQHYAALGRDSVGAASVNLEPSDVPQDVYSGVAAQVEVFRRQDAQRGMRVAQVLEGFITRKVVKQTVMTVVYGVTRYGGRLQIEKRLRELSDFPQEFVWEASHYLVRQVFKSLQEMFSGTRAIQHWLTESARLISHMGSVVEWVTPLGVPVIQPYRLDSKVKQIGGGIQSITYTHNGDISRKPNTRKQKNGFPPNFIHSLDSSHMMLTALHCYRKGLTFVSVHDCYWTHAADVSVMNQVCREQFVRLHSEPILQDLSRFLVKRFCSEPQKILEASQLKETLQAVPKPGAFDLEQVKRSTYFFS

human DNA polymerase β = molecular target: T1, human DNA polymerase β (Homo sapiens, UniProt P06746); assay: Human DNA polymerase inhibition assay, β; assay type: biochemical
T1 construct: purchased CHIMERx (Madison, WI)
Method: (§3) The polymerases were purchased from CHIMERx (Madison, WI). Inhibition of DNA polymerase α activity was assayed in microtiter plates in 20 mM Tris-HCl, pH 8, 5 mM Mg acetate, 0.3 mg/mL BSA, 1mM DTT, 0.1 mM spermine, 0.05 mM dCTP, dTTP and dATP, 10 μCi ^32P-α-dGTP (800 Ci/mmol), 20 μg activated calf thymus DNA and the test compound at indicated concentrations. The DNA polymerase β and γ reaction mixture contained 50 mM Tris-HCl, pH 8.7, KCl (10 mM for β and 100 mM for γ), 10 mM MgCl2, 0.4 mg/mL BSA, 1mM DTT, 15% glycerol, 0.05 mM dCTP, dTTP and dATP, 10 μCi ^32P-α-dGTP (800 Ci/mmol), 20 μg activated calf thymus DNA and test compound at the indicated concentrations. For each assay, samples were run in triplicate, and positive controls were included. The enzyme reactions were allowed to proceed for 30 min at 37 °C followed by transfer onto glass-fiber filter plates and subsequent precipitation with 10% trichloroacetic acid (TCA). Plates were washed five times with 5% TCA, once with 95% ethanol and dried. The radioactive content of each filter was measured and used to determine the extent of inhibition of each polymerase.

human DNA polymerase γ = molecular target: T2, human DNA polymerase γ (Homo sapiens, UniProt P54098); assay: Human DNA polymerase inhibition assay, γ; assay type: biochemical
T2 construct: purchased CHIMERx (Madison, WI)
T2 sequence (P54098 whole entry): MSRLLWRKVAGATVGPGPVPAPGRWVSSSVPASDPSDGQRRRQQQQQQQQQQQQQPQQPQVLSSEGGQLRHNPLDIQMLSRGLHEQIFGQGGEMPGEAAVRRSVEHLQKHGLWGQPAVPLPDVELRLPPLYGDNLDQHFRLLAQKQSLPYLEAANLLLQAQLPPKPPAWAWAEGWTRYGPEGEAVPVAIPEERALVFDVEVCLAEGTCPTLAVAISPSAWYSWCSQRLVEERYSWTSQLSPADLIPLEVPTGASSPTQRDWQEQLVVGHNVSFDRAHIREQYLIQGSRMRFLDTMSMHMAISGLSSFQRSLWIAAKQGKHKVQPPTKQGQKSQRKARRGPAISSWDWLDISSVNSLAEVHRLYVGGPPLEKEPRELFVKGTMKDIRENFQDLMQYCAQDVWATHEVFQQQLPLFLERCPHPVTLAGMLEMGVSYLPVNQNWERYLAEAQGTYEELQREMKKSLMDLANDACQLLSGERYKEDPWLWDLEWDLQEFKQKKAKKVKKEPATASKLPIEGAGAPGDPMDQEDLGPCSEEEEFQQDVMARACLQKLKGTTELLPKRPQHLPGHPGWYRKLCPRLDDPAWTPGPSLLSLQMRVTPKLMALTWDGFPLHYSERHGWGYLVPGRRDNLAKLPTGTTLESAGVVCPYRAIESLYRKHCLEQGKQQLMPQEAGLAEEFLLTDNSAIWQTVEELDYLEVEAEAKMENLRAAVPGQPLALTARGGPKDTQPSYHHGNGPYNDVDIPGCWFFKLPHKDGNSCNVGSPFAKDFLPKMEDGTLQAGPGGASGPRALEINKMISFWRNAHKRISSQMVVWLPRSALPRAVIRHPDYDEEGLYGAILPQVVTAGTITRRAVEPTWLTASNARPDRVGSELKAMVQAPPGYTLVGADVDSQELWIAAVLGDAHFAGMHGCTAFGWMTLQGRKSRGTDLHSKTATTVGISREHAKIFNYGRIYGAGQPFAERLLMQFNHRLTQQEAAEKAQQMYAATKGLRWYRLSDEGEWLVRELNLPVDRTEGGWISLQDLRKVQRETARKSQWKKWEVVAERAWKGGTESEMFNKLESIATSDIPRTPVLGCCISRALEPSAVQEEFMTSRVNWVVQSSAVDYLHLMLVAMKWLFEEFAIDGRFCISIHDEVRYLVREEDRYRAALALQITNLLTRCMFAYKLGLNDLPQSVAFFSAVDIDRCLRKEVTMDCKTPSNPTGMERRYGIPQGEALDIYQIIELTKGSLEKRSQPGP
Method: as §3

Flu A = assay: Anti-influenza A assay (XTT); assay type: cell-based, influenza virus type A; conditions: Influenza A virus; Flu A in MDCK cells
Flu B = assay: Anti-influenza B assay (XTT); assay type: cell-based, influenza virus type B; conditions: Influenza B virus; Flu B in MDCK cells
Text: Anti-Influenza Type A and B Virus (Flu A & B). […] The influenza A/PR/8/34 (VR-95) and influenza B/Allen/45 (VR-102) was obtained from ATCC and a stock virus pool was produced in MDCK cells.
as §2

[2] = system: granulocyte macrophage (GM) human bone marrow progenitor cells; assay: Bone marrow progenitor cell inhibition assay, GM; assay type: cell-based; conditions: 14 days
HIV-1 = assay: Anti-HIV-1 assay (XTT); assay type: cell-based, human immunodeficiency virus type 1; conditions: Human immunodeficiency virus 1; HIV-1 in CEM-SS cells
Method: Anti-Human Immunodeficiency Virus (HIV-1). CEM-SS cells were obtained from the NIH AIDS Research and Reference Reagent Program (Manassas, VA), resuspended at 5x10^4 cells per mL and 50 µL added to the microtiter plate wells. The lymphocyte-tropic virus strain HIV-1RF (obtained from the NIH AIDS Research and Reference Reagent Program and grown in CEM-SS cells for stock virus pools) was used for the assay.
as §2

[3] = system: erythroid (E) human bone marrow progenitor cells; assay: Bone marrow progenitor cell inhibition assay, E; assay type: cell-based; conditions: 14 days
Text: Bone marrow progenitor cell inhibition assays. […] The resulting number of colonies (greater than 30 cells) were compared to control wells to determine the extent of cytotoxicity.

CEM-SS cells = assay: XTT cytotoxicity, CEM-SS cells; assay type: cell-based; conditions: HIV-1 assay
human iPS cardiomyocytes = assay type: cell-based; conditions: 3 days
Method: Cardiomyocyte assay. […] Test or positive control compounds were then added in triplicate and the incubations continued for 3 days. Cell viability was measured by XTT and CellTiter Glo staining. For the latter method, the medium was removed from test plates, replaced with CellTiter Glo reagent in fresh medium before incubating at RT for 10 min. The well contents were transferred to a white 96-well plate and luminescence measured within 15 min on a Wallac 1450 Microbeta Trilux liquid scintillation counter.

[4] = system: HCV NS5B replicons, laboratory strains; assay: PhenoSense HCV NS5B assay, laboratory strains; assay type: cell-based, hepatitis C virus
HCV GT1b replicon = HCV GT1b replicon assay (Britelite luciferase reporter)
[5] = system: HCV NS5B replicons from clinical isolates; assay: PhenoSense HCV NS5B assay, clinical isolates; assay type: cell-based, hepatitis C virus; conditions: for EC50: Hepatitis C virus
[6] = system: HCV strains containing resistance-associated variants (RAVs); assay: PhenoSense HCV NS5B assay, resistance-associated variants; assay type: cell-based, hepatitis C virus; conditions: for EC50: Hepatitis C virus
Huh-luc/neo-ET cells = conditions: XTT
Vero cells = assay: XTT cytotoxicity, Vero cells; assay type: cell-based, African green monkey; conditions: HSV-1 assay
HSV-1 = assay: Anti-HSV-1 assay (XTT); assay type: cell-based, herpes simplex virus type 1; conditions: Human alphaherpesvirus 1; HSV-1 in Vero cells
Text: Anti-Herpes Simplex Type 1 Virus (HSV-1).
as §2

[7] = individual assays, AT-511 batches 1-6, SOF in parallel

## Cc1ccc(CCCO)c(NCc2ccc3nc(NCCCN4CCOCC4)n(Cc4nc(C)ccc4O)c3c2)c1 [TMC-353121]
RSV
  EC50: 3 nM
HEp2 cells
  TC50: >100 nM

## CC(C)OC(=O)OCOP(=O)(CO[C@H](C)Cn1cnc2c(N)ncnc21)OCOC(=O)OC(C)C [TDF, tenofovir disoproxil fumarate]
HBV
  EC50: 230 nM
AD38 cells
  TC50: >1000 nM

## O=c1ccn([C@@H]2O[C@H](COP(=O)(O)OP(=O)(O)OP(=O)(O)O)[C@@H](O)[C@H]2O)c(=O)[nH]1 [UTP]
[1]
  kpol: 17 ± 1 s⁻¹

## C[C@H](CCC(=O)O)[C@H]1CC[C@H]2[C@@H]3CC[C@@H]4C[C@H](O)CC[C@]4(C)[C@H]3CC[C@]12C [lithocholic acid, reference compound]
Human DNA polymerase β
  IC50: 2910 nM

## Nc1nc2c(ncn2[C@@H]2O[C@H](COP(=O)(O)OP(=O)(O)OP(=O)(O)O)[C@@H](O)[C@H]2F)c(=O)[nH]1 [2’-fluoro-2’-dGTP, reference compound]
Human DNA polymerase γ
  IC50: 10400 nM

## CCOC(=O)C1=C[C@@H](OC(CC)CC)[C@H](NC(C)=O)[C@@H](N)C1 [Oseltamivir]
Flu A
  EC50: 160 nM
Flu B
  EC50: 420 nM
MDCK cells; Flu A assay
  TC50: >10000 nM
MDCK cells; Flu B assay
  TC50: >10000 nM

## Cc1cn([C@H]2C[C@H](N=[N+]=[N-])[C@@H](CO)O2)c(=O)[nH]c1=O [Zidovudine]
[2]
  TC50: 1000 nM
HIV-1
  EC50: 4 nM
[3]
  TC50: 2000 nM
CEM-SS cells
  TC50: >500 nM

## Nc1nc2c(ncn2[C@@H]2O[C@H](COP(=O)(O)OP(=O)(O)OP(=O)(O)O)[C@@H](O)[C@H]2O)c(=O)[nH]1 [GTP]
[1]
  kpol: 21 ± 1 s⁻¹

## COc1cc2nc(N3CCN(C(=O)C4COc5ccccc5O4)CC3)nc(N)c2cc1OC (centres unmarked) [doxazosin]
Human iPS cardiomyocytes
  TC50: 18000 nM

## CC(C)OC(=O)[C@H](C)N[P@](=O)(OC[C@H]1O[C@@H](n2ccc(=O)[nH]c2=O)[C@](C)(F)[C@@H]1O)Oc1ccccc1 [SOF, sofosbuvir]
[4]; GT1a H77
  EC95: 719 nM
[4]; GT1b Con-1
  EC95: 545 nM
[4]; GT1b Con-1 (control reference)
  EC50: 89.4 nM
[4]; GT3a S52
  EC95: 700 nM
[4]; Hepatitis C virus, GT1A, GT1a H77
  EC50: 83.4 nM
[4]; Hepatitis C virus, GT1B, GT1b Con-1 (control reference)
  EC50: 89 nM
[4]; Hepatitis C virus, GT2A, GT2a JFH-1
  EC50: 50.7 nM
[4]; Hepatitis C virus, GT3A, GT3a S52
  EC50: 117 nM
[4]; Hepatitis C virus, GT4A, GT4a ED43
  EC50: 158 nM
[4]; Hepatitis C virus, GT5A, GT5a SA13
  EC50: 287 nM
[4]; Hepatitis C virus, read-out: range in EC50 values across genotypes, panel of six laboratory strains
  EC50: 51 to 287 nM
[4]; laboratory strains
  fold range in EC50 values across genotypes: 5.6 fold
HCV GT1b replicon; Hepatitis C virus, GT1B, read-out: EC50 range, range over all assays
  EC50: 33 to 68 nM
HCV GT1b replicon; Hepatitis C virus, GT1B, read-out: mean EC50, mean (± SD) of all assays
  EC50: 48 ± 10 nM
HCV GT1b replicon; [7]
  EC50: 52.3 nM and 46.5 nM and 67.5 nM and 32.7 nM and 48.3 nM and 40.4 nM and 47.6 nM and 48.1 nM
  EC95: 360 nM and 231 nM and 387 nM and 197 nM and 247 nM and 198 nM and 275 nM and 263 nM
HCV GT1b replicon; mean (± SD) of all assays
  mean EC95: 270 ± 70 nM and 270 nM
HCV GT1b replicon; read-out: EC50 range, range over all assays
  EC50: 32.7 to 67.5 nM
HCV GT1b replicon; read-out: mean EC50, mean (± SD) of all assays
  EC50: 47.9 nM
[5]; GT1A, clinical isolate GT1a
  EC50: 62.7 nM
[5]; GT1B, clinical isolate GT1b
  EC50: 86 nM
[5]; GT2A, clinical isolate GT2a
  EC50: 22.5 nM
[5]; GT2B, clinical isolate GT2b
  EC50: 44.8 nM
[5]; GT3A, clinical isolate GT3a-1
  EC50: 126 nM
[5]; GT3A, clinical isolate GT3a-2
  EC50: 123 nM
[5]; GT4A, clinical isolate GT4a
  EC50: 74.9 nM
[5]; clinical isolate GT4d
  EC50: 93.7 nM
  EC95: 1020 nM
[5]; read-out: range in EC50 values, eight clinical-isolate replicons
  EC50: 23 to 126 nM
[5]; clinical isolate GT1a
  EC95: 508 nM
[5]; clinical isolate GT1b
  EC95: 642 nM
[5]; clinical isolate GT2a
  EC95: 195 nM
[5]; clinical isolate GT2b
  EC95: 295 nM
[5]; clinical isolate GT3a-1
  EC95: 690 nM
[5]; clinical isolate GT3a-2
  EC95: 808 nM
[5]; clinical isolate GT4a
  EC95: 681 nM
[5]; clinical isolates
  fold range in EC50 values: 5.5 fold
  fold range in EC95 values: 5.2 fold
[6]; GT1a 2_C316N
  EC95: 473 nM
[6]; GT1a 2c1_L159F
  EC95: 1068 nM
[6]; GT1a 2c2_L159F_S282T
  EC95: 16950 nM
[6]; GT1a H77_C316N
  EC95: 469 nM
[6]; GT1a H77_S282T
  EC95: 7230 nM
[6]; GT1b Con-1_L159F
  EC95: 715 nM
[6]; GT1b Con-1_S282T
  EC95: 7230 nM
[6]; GT2b 2_L159F
  EC95: 539 nM
[6]; GT1A, GT1a 2_C316N
  EC50: 73.9 nM
[6]; GT1A, GT1a 2c1_L159F
  EC50: 115 nM
[6]; GT1A, GT1a 2c2_L159F_S282T
  EC50: 1620 nM
[6]; GT1A, GT1a H77_C316N
  EC50: 57.2 nM
[6]; GT1A, GT1a H77_S282T
  EC50: 1400 nM
[6]; GT1B, GT1b Con-1_L159F
  EC50: 111 nM
[6]; GT1B, GT1b Con-1_S282T
  EC50: 950 nM
[6]; GT2B, GT2b 2_L159F
  EC50: 79.2 nM
[6]; strains with S282T
  shift in EC50 versus reference strain lacking S282T: 15 fold
  shift in EC95 versus reference strain lacking S282T: 19 fold
Huh-luc/neo-ET cells
  toxicity to the replicon cells, none up to highest concentration tested: > 1 µM
Huh-luc/neo-ET cells; individual assays
  TC50: >1000 nM

## Nc1nc2c(ncn2COCCO)c(=O)[nH]1 [Acyclovir]
Vero cells
  TC50: >100000 nM
HSV-1
  EC50: 1760 nM
